Reference: the NIST ThermoML archive (doi:10.1016/j.jct.2016.07.047)

Test: mn = molality of the nth substance listed, in mol/kg
Settings: Liquid; for viscosity: Falling or rolling sphere viscometry; for electrical conductivity: Frequency=0.0003 MHz, Alternating current cell with electrodes; for mass density: Vibrating tube method

NCC(=O)O [2-aminoacetic acid] + O
87 kPa
Settings | electrical conductivity, m1 = 0.1 [S/m] | electrical conductivity, m1 = 0.3 [S/m] | electrical conductivity, m1 = 0.5 [S/m] | mass density, m1 = 0.1 [kg/m3] | mass density, m1 = 0.3 [kg/m3] | mass density, m1 = 0.5 [kg/m3] | viscosity, m1 = 0.1 [mPa·s] | viscosity, m1 = 0.3 [mPa·s] | viscosity, m1 = 0.5 [mPa·s]
288.15 K | 0.000925 | 0.00227 | 0.00355 | 1002.42 | 1008.66 | 1014.9 | 1.144 | 1.176 | 1.208
298.15 K | 0.000963 | 0.00239 | 0.00381 | 1000.23 | 1006.29 | 1012.35 | 0.924 | 0.95 | 0.984
308.15 K | 0.00101 | 0.00253 | 0.0041 | – | 1003.23 | 1009.25 | 0.729 | 0.749 | 0.77
318.15 K | 0.00106 | 0.00269 | 0.00445 | 993.28 | 999.24 | 1005.2 | 0.613 | 0.638 | 0.662

C[C@H](N)C(=O)O [(S)-2-aminopropanoic acid] + O
Settings | electrical conductivity, m1 = 0.1 [S/m] | electrical conductivity, m1 = 0.3 [S/m] | electrical conductivity, m1 = 0.5 [S/m] | mass density, m1 = 0.1 [kg/m3] | mass density, m1 = 0.3 [kg/m3] | mass density, m1 = 0.5 [kg/m3] | viscosity, m1 = 0.1 [mPa·s] | viscosity, m1 = 0.3 [mPa·s] | viscosity, m1 = 0.5 [mPa·s]
288.15 K, 87 kPa | 0.000237 | 0.000567 | 0.000861 | – | – | – | – | – | –
288.15 K, 100 kPa | – | – | – | 1002.1 | 1007.7 | 1013.3 | 1.16 | 1.223 | 1.286
298.15 K, 87 kPa | 0.000293 | 0.000659 | 0.000968 | – | – | – | – | – | –
298.15 K, 100 kPa | – | – | – | 999.97 | 1005.51 | 1011.05 | 0.91 | 0.955 | 1.001
308.15 K, 87 kPa | 0.000357 | 0.000783 | 0.00117 | – | – | – | – | – | –
308.15 K, 100 kPa | – | – | – | 996.94 | 1002.42 | 1007.9 | 0.738 | 0.774 | 0.809
318.15 K, 87 kPa | 0.000441 | 0.000946 | 0.00141 | – | – | – | – | – | –
318.15 K, 100 kPa | – | – | – | 993.09 | 998.47 | 1003.85 | 0.613 | 0.649 | 0.685
